The record followed here is EP0569598A1, “BENZOXAZINONE DERIVATIVE” (JAPAN TOBACCO INC., priority 1991, dated 1993).

Structures are written as SMILES.

The target of experiment [1] is T1, human leukocyte elastase (HLE) (Homo sapiens, UniProt P08246).
T1 construct: the mixed solution was subjected to density gradient centrifugation, thereby obtaining neutrophiles; from tissue; host or cells: neutrophils from human vein blood (buffy coat)
T1 sequence (P08246 30-247 limits assumed): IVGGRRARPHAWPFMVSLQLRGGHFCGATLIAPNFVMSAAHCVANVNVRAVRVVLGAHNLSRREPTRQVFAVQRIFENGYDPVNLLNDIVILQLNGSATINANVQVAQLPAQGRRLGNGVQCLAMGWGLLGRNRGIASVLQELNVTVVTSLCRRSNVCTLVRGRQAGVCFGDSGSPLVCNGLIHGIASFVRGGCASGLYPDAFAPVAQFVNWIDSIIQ
Briefly: HLE inhibitory activity (synthetic substrate, pNA release, absorbance 405 nm). The experiment is classed as biochemical. The conditions noted are these: pH 8.6; HLE 5.63 nM, substrate 0.2625 mM; 37°C; read-out: IC₅₀ value HLE. How it is done: (§1) Activities of the Benzoxazine derivatives of the present invention against human leukocyte elastase (HLE), human sputum elastase (HSE), human cathepsin G (HCG), bovine pancreatic α-chmotrypsin (CYT) and bovine pancreatic trypsin (TRY) were measured by the following method.
A buffy coat was obtained by subjecting human vein blood to centrifugation. To the buffy coat was added distilled water to make a hypotonic solution, thereby bursting erythrocytes. To the residual blood cell component was added a 33.4% of Conrey 400 solution/9% Ficoll solution (the ratio of the former solution to the latter solution is 10:24), and the mixed solution was subjected to density gradient centrifugation, thereby obtaining neutrophiles. The neutrophile fraction was washed with Hanks' buffer for three times and then cells were recovered and cryopreserved at -80°C until use. The cryopreserved-cells were thawed with warm water at 37°C and suspended in a 9-fold volume of lysis buffer containing 0.1M Tris-HCl (pH7.5), 1M MgCl₂ and 0.1% Brij 35. The suspended cells are destroyed by means of polotoron with ice-cooling. The cell suspension was subjected to centrifugation at 100,000 x g for 1 hour. After removing precipitates, 2-fold volume of a Tris-HCl buffer containing 5 mM Tris-HCl(pH 7.5), 1M NaCl and 1.1% Brij 35 was added to the supernatant, thereby obtaining a crude solution of an enzyme extract. The crude solution was subjected to aprotinine affinity column and extracted with an elution buffer containing […] of glycine-HCl (pH 3.3), 1M NaCl and 0.1% Brij 35, thereby obtaining an active fraction. The obtained active fraction was further subjected to MONO S-ion-exchange chromatography and eluted with 2M NaCl linear gradient. The obtained fraction was dialyzed against 25 mM Tris-HCl (pH8.6) and lyophilized, thereby obtained an enzyme sample.
(§2) A test compound was dissolved in DMSO (for fluorometry) and prepared various concentration of the solution. To each concentration was added 2-fold volume of 0.2M Tris-HCl (pH8.6), thereby obtaining a test solution. Synthetic substrate (Funakoshi, L-1335) was dissolved in DMSO and 2-volume of 0.2M Tris-HCl (pH8.6) was added thereto, thereby obtaining a substrate solution. The reaction was performed using a microplate having 96 wells (Nunk). Six-time reactions were repeated for each concentration. One handred and forty µl of an enzyme solution containing 0.2M Tris-HCl (pH8.6), 30 µl of a test solution and 30 µl of a substrate solution per well of the microplate were respectively pre-incubated at 37°C for 10 minutes. After completion of the incubation, the enzyme solution was mixed with the test sample and incubated for 10 minutes and then the substrate solution was added to perform an enzyme reaction. The absorbance of released P-nitroanilide (PNA) was measured at the wave length of 405 nm by means of a microplate reader (MTP-100; CORONA), thereby determining the substrate decomposition. The rate of the substrate decomposition was shown as an average value of 6 repeated reactions. The inhibitory concentration of a test compound relative to the amount of the substrate decomposition in the reaction mixture without a test compound was regarded as an IC₅₀ value. The final concentration of HLE and a synthesized substrate in the reaction mixture were 5.63 nM and 0.2625 mM, respectively.

Another experiment has as its target T2, human cathepsin G (HCG) (Homo sapiens, UniProt P08311).
T2 construct: purchased Cosmo Bio Inc
T2 sequence (P08311 21-244): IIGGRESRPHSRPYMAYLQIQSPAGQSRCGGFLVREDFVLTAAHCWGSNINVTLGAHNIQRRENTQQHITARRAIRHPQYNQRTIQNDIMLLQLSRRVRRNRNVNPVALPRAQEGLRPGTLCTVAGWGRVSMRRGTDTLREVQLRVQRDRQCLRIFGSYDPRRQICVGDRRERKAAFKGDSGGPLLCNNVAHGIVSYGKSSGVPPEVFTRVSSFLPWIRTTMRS
Briefly: HCG inhibitory activity (synthetic substrate, pNA release). It is filed as biochemical. The conditions noted are these: pH 7.5; HCG 50 nM, substrate 0.5 mM; read-out: IC₅₀ value HCG. As for the experimental part:
as §1, §2
a) Enzyme obtaining route HCG was obtained from Cosmo Bio Inc.
The same method as in the measurement of HLE inhibitory activity was used except that a buffer solution (pH 7.5) was used. The final concentration of HCG and synthetic substrate (Funakoshi, L-1010) in a reaction mixture were 50 nM and 0.5 mM, respectively.

For experiment [2], the target named is T3, bovine pancreatic α-chmotrypsin (CYT) (Bos taurus, UniProt P00766).
T3 construct: bovine pancreatic α-chmotrypsin (CYT); purchased Sigma Co., Ltd
Description: CYT inhibitory activity (synthetic substrate, pNA release). The experiment is classed as biochemical. The conditions noted are these: pH 8.0; CYT 3.4 nM, substrate 0.273 mM; read-out: IC₅₀ value CYT. How it is done: as §1, §2
a) Enzyme obtaining route CYT was obtained from Sigma Co., Ltd.
Substantially the same method as used in the measurement of the HLE inhibitory activity was used except that a buffer solution (pH 8.0) was used. The final concentration of CYT and synthetic substrate (Funakoshi, L-1010) in a reaction mixture were 3.4 nM and 0.273 mM, respectively.

Experiment [3] concerns Neutrophile Infiltration of Carrageenin-induced Air Pouch inflammation. Briefly: Suppression of neutrophile infiltration in carrageenin-induced air pouch inflammation. The experiment is classed as in vivo, rat. To be noted: Dose 10.9 µmol into the air pouch immediately after carrageenin, exudate cells five hours later, SD female rats. As for the experimental part:
SD female rats in 5 weeks old, having the weight in the range of 110 to 130g were used. A group was regarded to have 5 rats. In the first step, an air pouch was formed by a hypodermic injection of 8 ml of air on the back of a rat under ether anesthesia. Twenty four hours later, to the air pouch was added 5 ml of a saline containing 1% carrageenin (Wako Co., Ltd.). A test compound of the present invention, which has been dissolved in 200 µl DMSO (dimethylsulfoxide), was administered in the air pouch immediately after the carrageenin injection.
Five hours later, the rat was killed and the blood was released. Then, 5 ml of PBS containing EDTA (ethylenediamine tetraacetate) was injected in the air pouch. The exudate in the air pouch was washed and collected. An aliquot of the exudate was measured by a colter counter and determined the number of cells in the collected exudate.
The value subtracting migrating cell number in an experiment performed without carrageenin injection from the migrating cell number in a control experiment administering no the compound of the present invention was regarded as 100, the chemotaxis suppressing activity was determined as the following formula: Cell Infiltration Suppressing Activity (%) [formula] = 100 - S/T x 100 [formula] = 100 - (U - V )/(W - V) x 100 [formula] […]

Consider `Cc1cccc2nc([C@@H](NC(=O)COC(c3ccccc3)c3ccccn3)C(C)C)oc(=O)c12` (mixture of isomers) [Compound 3, 5-methyl-2-[2-methyl-1(S)-[[[(±)-α-(2-pyridyl)benzyloxy]acetyl]amino]propyl]-4H-3,1-benzoxazin-4-one], for which the IC50 in experiment [1] was 0.34 µM; at human cathepsin G (HCG) it was 58.3 µM; in experiment [2], 2.08 µM. The “Rate (%) of Suppressing Cell Infietration” value in experiment [3] was determined as 33.9%. Further, in experiment [3] (control regarded as 100), the “Cell Infiltration” value is recorded as 66.1.
